Assay results taken from US20230309520A1, “AGE-RELATED HEARING LOSS ANIMAL MODEL AND CONSTRUCTION METHOD THEREFOR” (UNIVERSITY INDUSTRY FOUNDATION, YONSEI UNIVERSITY WONJU …, priority 2020, published 2023).

Experiments:
[1] = Auditory brainstem response test (ABR-TEST), hearing threshold; assay type: in vivo, C57BL/6 mice; conditions: for hearing threshold: hypoxia
Description: The wave V reference value of ABR was determined by gradually attenuating the sound intensity in 5 dB steps from 80 dB SPL until the wave V and the noise floor were indistinguishable from the recorded traces. Data management and auditory brainstem response test were conducted using the TDT RZ6/BioSigRZ system (Tucker Davis Technologies, Alachua, FL, USA) in a noise attenuation chamber with a built-in Faraday box.
Electrodes were disposed on the subcutaneous tissue of each mouse to collect data. […] An isothermal pad was used to maintain the body temperature of the mouse, and the ABR test was conducted every two weeks for stability of the experimental groups.

[2] = test system: auditory hair cells; assay: Hair cell survival and damage by Myo7a immunostaining of cochlear slices; assay type: in vivo, C57BL/6 mice; conditions: normoxia; single condition
Description: Specifically, an opening was made at the apex of the cochlear bone of the sacrificed mouse, and phosphate buffered saline at pH 7.4 containing 4% paraformaldehyde as a fixative was perfused at room temperature. The cochlea perfused with a fixative was immersed in Calci-Clear Rapid for 24 hours to demineralize, an OCT (Optimal Cutting Temperature) compound was inserted, and then the cochlea was cut into slices with a thickness of 2 to 5 µm using LEICA RM2145 (Leica Biosystems, Wetzlar, German). The cut cochlea was incubated in standard hematoxylin for 3 minutes and stained with eosin (H&E) for 60 seconds.
Specifically, the cochlear slice was fixed on a gelatin-coated slide having a thickness of 5 µm with 4% paraformaldehyde for 15 minutes and then dried at room temperature. The slice was incubated with 5% normal goat serum at room temperature for 1 hour to prevent nonspecific labeling, and incubated with primary antibody MY07A (1:200, ab3481, Abeam, UK) at 4° C. for 1 hour. […]
The images of auditory hair cells of all the cochlear slices were analyzed using a confocal microscope (Carl Zeiss Microscopy GmbH, Jena, Germany) and ZEN lite ver.2.3 (ZEN lite, Jena, Germany) software.
The survival rate was evaluated by analyzing Myo7a, a major protein present in auditory hair cells.

[3] = mouse
[4] = test system: SOD; assay: Superoxide dismutase (SOD) activity test in serum; assay type: in vivo, C57BL/6 mice; set-up: unit not given here
Description: Specifically, the blood was reacted in an anticoagulant tube at 25° C. (room temperature) for 30 minutes, and then centrifuged at 2,000 × g for 15 minutes at 4° C. to prepare purified serum. The purified serum was stored at -80° C. for one month and diluted 1:5 with sample buffer before analysis, and then the amount of SOD in the body was measured using an SOD assay kit (No. 706002, Cayman Che., MI, USA). The SOD assay kit is a kit that uses tetrazolium salt to detect superoxide radicals generated by xanthine oxidase and hypoxanthine. […] The amount of oxidative stress in serum was analyzed by analyzing the SOD activity test result in Experimental Example <1-5>.

SMILES: O=C[C@H](O)[C@@H](O)[C@@H](O)[C@H](O)CO [GI, D-galactose]
- hearing threshold ([1]; 8, 16, 24 kHz analysis, initial value (increased from)): 30 dB
- hearing threshold ([1]; 8, 16, 24 kHz analysis, value after 1 month (increased to)): 60 dB
- hearing threshold ([1]; 8 kHz, final value (increased to), 3 months): 67 + 10.13 dB
- hearing threshold ([1]; 8 kHz, initial value (increased from)): 34 + 3.76 dB
- hearing threshold ([1]; 16 kHz, final value (increased to), 3 months): 60 + 7.33 dB
- hearing threshold ([1]; 16 kHz, initial value (increased from)): 38 + 4.08 dB
- change in hearing threshold compared to control group ([1]; normoxia, 8, 16, and 24 kHz): do not change significantly
- change in the hearing threshold ([1]; normoxia, 8 kHz): no significant change
- changes in the hearing thresholds ([1]; normoxia, frequencies of 4 to 32 kHz, 3 months): no significant changes
- damage to hair cells [2]: almost no damage to cells
- Dermis Thickness [3]: 348.5 ±85.9
- amount of SOD in serum ([4]; hypoxia, 0 M): 0.5914 ±0.000
- amount of SOD in serum ([4]; hypoxia, 1 M): 0.5627 ± 0.005
- amount of SOD in serum ([4]; hypoxia, 2 M): 0.5463 ± 0.005
- amount of SOD in serum ([4]; hypoxia, 3 M): 0.5695 ± 0.059
- amount of SOD in serum ([4]; normoxia, 0 M): 0.5955 ± 0.017
- amount of SOD in serum ([4]; normoxia, 1 M): 0.5463 ± 0.005
- amount of SOD in serum ([4]; normoxia, 2 M): 0.5216 ± 0.005
- amount of SOD in serum ([4]; normoxia, 3 M): 0.5148 ± 0.028
